Measurements as given in US9309276B2, “Synthetic lipid A derivative” (University of Georgia Research Foundation, Inc., priority 2007, dated 2016).
Read-outs that look alike come from different tables or passages of the source.

What was measured:
Type in all cases: cell-based
MM6 cells = assay: Antagonism of E. coli LPS-induced TNF-α production in human monocytic MM6 cells; details: 5.5 h, read-out: IC50 (concentration producing 50% inhibition) of TNF production induced by E. coli LPS
Procedure: TNF-α concentrations were measured after preincubation of MM6 cells with increasing concentrations of 103 or 104 as indicated for 1 h at 37° C., followed by 5.5 h of incubation with E. coli LPS (1 ng mL^−1). Results are expressed as percentage of cytokine concentration of control cells, which are incubated only with E. coli LPS.
Compounds that lack proinflammatory properties may still interact with relevant receptors (TLR4/MD2/CD14), and thereby inhibit TNF-α production induced by E. coli LPS. […]
(§1) On the day of the exposure assay differentiated MM6 cells were harvested by centrifugation and suspended (10^6 cells mL^−1) in tissue culture tubes and RAW 264.7 γNO(−) cells were plated as 2×10^5 cells/well in 96-well tissue culture plates (Nunc). […] Concentrations of human TNF-α protein in culture supernatants were determined by a solid phase sandwich ELISA. […] After the reaction was stopped by adding peroxidase stop solution (Kirkegaard & Perry Laboratories), the absorbance was measured at 405 nm using a microplate reader (BMG Labtech). Cytokine DuoSet ELISA Development Kits (R&D Systems) were used for the cytokine quantification of mouse TNF-α, mouse IL-6, mouse IP-10 and mouse IL-1β according to the manufacturer's instructions. The absorbance was measured at 450 nm with wavelength correction set to 540 nm. Concentrations of mouse IFN-β in culture supernatants were determined as follows. […]

RAW cells = assay: Antagonism of E. coli LPS-induced TNF-α production in mouse macrophages (RAW cells); details: mouse cell line, E. coli LPS (10 ng/mL), 5.5 h
Procedure: Compounds that lack proinflammatory properties may still interact with relevant receptors (TLR4/MD2/CD14), and thereby inhibit TNF-α production induced by E. coli LPS. Thus, the human monocytic cells and mouse macrophages (MM6 and RAW cells) were exposed to a combination of E. coli LPS (10 ng/mL) and a wide range of concentrations of lipid As 103 and 104 and, after an incubation time of 5.5 h, the supernatant was examined for human or mouse TNF-a.
as §1

human TLR4/MD2/CD14 = target: T1, human TLR4/MD2/CD14 (Homo sapiens, UniProt O00206+Q9Y6Y9); assay: NF-κB activation in HEK 293T cells stably transfected with human TLR4/MD2/CD14; details: 103/104 at 0.1, 1 and 10 μg mL−1; E. coli LPS 10 ng mL−1; 4 h
T1 construct: host or cells: HEK 293T
T1 sequence (O00206 24-839): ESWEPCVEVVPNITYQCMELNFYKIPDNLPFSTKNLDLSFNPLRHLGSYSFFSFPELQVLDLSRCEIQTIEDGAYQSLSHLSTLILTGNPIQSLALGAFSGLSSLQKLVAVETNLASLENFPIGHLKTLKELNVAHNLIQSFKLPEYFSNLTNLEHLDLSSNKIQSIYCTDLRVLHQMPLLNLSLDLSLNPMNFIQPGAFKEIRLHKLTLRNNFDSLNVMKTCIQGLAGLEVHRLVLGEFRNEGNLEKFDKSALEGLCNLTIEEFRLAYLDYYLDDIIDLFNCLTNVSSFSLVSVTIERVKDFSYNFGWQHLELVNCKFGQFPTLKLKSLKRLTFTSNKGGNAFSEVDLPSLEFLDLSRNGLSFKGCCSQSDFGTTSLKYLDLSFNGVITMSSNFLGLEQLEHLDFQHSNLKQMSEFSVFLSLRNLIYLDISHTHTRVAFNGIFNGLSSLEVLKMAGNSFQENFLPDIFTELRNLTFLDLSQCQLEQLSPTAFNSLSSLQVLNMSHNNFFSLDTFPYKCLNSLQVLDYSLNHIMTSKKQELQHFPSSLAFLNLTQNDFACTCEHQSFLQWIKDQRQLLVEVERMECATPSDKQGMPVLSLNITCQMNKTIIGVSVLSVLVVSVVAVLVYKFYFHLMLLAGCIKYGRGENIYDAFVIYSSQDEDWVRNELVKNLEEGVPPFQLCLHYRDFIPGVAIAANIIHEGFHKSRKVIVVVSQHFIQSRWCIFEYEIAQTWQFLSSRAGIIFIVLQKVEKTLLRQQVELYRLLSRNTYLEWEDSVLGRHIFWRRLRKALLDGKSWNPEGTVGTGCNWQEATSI
T1 sequence (Q9Y6Y9 19-160): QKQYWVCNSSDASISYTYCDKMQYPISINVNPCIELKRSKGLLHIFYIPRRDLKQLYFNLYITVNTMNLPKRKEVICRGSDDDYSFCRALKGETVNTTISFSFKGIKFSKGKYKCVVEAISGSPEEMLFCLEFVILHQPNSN
Procedure: Induction of NF-κB activation was determined in triplicate cultures of HEK 293T cells stably transfected with human or mouse (a) TLR4/MD2/CD14 and (b) TLR2 and transiently transfected with pELAM-Luc and pRL-TK plasmids. Forty-four h post-transfection, cells were treated with (B) E. coli LPS (10 ng mL^−1), (C) Pam3CysSK4 (1 μg mL^−1), (D, E and F) 103 (0.1, 1 and 10 μg mL^−1, respectively), (G, H and I) 104 (0.1, 1 and 10 μg mL^−1, respectively) or (A) were left untreated (control). Forty-eight h post-transfection, NF-κB activation was determined by firefly luciferase activity relative to Renilla luciferase activity. n.a. indicates not analyzed. […]
The day before transfection, HEK 293T wild type cells and HEK 293T cells stably transfected with human and murine TLR4/MD2/CD14 and human and murine TLR2 were plated in 96-well tissue culture plates (16,000 cells/well). […] The luciferase activity was measured using the Dual-Luciferase Reporter Assay System (Promega) according to the manufacturer's instructions and a combination luminometer/fluorometer microplate reader (BMG Labtech). […]

human TLR2 = target: T2, human TLR2 (Homo sapiens, UniProt O60603); assay: NF-κB activation in HEK 293T cells stably transfected with human TLR2; details: 103/104 at 0.1, 1 and 10 μg mL−1; Pam3CysSK4 1 μg mL−1; 4 h
T2 construct: host or cells: HEK 293T
T2 sequence (O60603 21-784): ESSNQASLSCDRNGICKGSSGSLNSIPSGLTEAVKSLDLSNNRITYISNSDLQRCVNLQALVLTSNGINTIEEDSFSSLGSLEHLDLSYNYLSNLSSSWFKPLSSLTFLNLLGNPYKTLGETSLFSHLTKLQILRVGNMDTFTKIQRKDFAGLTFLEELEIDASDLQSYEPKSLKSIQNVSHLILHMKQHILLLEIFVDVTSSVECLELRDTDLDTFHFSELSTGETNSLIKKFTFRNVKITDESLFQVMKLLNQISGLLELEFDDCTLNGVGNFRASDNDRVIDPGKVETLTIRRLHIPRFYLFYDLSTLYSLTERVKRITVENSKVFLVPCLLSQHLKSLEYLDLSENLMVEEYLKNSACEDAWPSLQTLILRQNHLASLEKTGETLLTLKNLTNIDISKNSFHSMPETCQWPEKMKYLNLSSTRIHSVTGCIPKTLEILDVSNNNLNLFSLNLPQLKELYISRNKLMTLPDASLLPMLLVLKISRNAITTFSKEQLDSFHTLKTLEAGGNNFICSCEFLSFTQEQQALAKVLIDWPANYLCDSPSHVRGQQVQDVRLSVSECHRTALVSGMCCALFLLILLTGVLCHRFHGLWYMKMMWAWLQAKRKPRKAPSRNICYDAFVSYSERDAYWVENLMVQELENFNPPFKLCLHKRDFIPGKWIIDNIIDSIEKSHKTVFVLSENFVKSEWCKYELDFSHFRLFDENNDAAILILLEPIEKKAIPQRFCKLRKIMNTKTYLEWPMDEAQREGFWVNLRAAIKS
Procedure: Induction of NF-κB activation was determined in triplicate cultures of HEK 293T cells stably transfected with human or mouse (a) TLR4/MD2/CD14 and (b) TLR2 and transiently transfected with pELAM-Luc and pRL-TK plasmids. Forty-four h post-transfection, cells were treated with (B) E. coli LPS (10 ng mL^−1), (C) Pam3CysSK4 (1 μg mL^−1), (D, E and F) 103 (0.1, 1 and 10 μg mL^−1, respectively), (G, H and I) 104 (0.1, 1 and 10 μg mL^−1, respectively) or (A) were left untreated (control). Forty-eight h post-transfection, NF-κB activation was determined by firefly luciferase activity relative to Renilla luciferase activity. n.a. indicates not analyzed.
To examine the ability of the synthetic compounds to induce activation of NF-κB, HEK 293T cells were employed that were stably transfected with various immune receptors and transiently transfected with a plasmid containing the reporter gene pELAM-Luc (NF-κB-dependent firefly luciferase reporter vector) and a plasmid containing the control gene pRL-TK (Renilla luciferase control reporter vector) (FIG. 11). […] Although compound 104 is a weak activator of mouse TLR4, it could not induce the secretion of cytokines.
The day before transfection, HEK 293T wild type cells and HEK 293T cells stably transfected with human and murine TLR4/MD2/CD14 and human and murine TLR2 were plated in 96-well tissue culture plates (16,000 cells/well). The next day, cells were transiently transfected using PolyFect Transfection Reagent (Qiagen) with expression plasmids pELAM-Luc (NF-κB-dependent firefly luciferase reporter plasmid, 50 ng/well) (Chow et al., J. Biol. Chem., 1999, 274, 10689-10692) and pRL-TK (Renilla luciferase control reporter vector, 1 ng/well; Promega) as an internal control to normalize experimental variations. […] The luciferase activity was measured using the Dual-Luciferase Reporter Assay System (Promega) according to the manufacturer's instructions and a combination luminometer/fluorometer microplate reader (BMG Labtech). […]

Row | SMILES | IC50 (MM6 cells; human MM6 cells, E. coli LPS (10 ng/mL)) | inhibition of TNF-α production induced by E. coli LPS (RAW cells) | NF-κB activation, human TLR4/MD2/CD14 (human TLR4/MD2/CD14) | NF-κB activation, human TLR2 (human TLR2) | IC50 (MM6 cells; Homo sapiens)
1 | CCCCCCCCCCCCCCCC(=O)O[C@H](CCCCCCCCCCCC(C)C)CC(=O)N[C@H]1[C@H](OC[C@H]2O[C@H](OP(=O)(O)O)[C@H](NC(=O)C[C@H](O)CCCCCCCCCCCC(C)C)[C@@H](OC(=O)C[C@H](O)CCCCCCCCCCCCC)[C@@H]2O)O[C@H](CO)[C@@H](O)[C@@H]1O [Compound 103, 6-O-{2-Deoxy-2-[(R)-3-hexadecanoyloxy-15-methyl-hexadecanoylamino]-β-D-glucopyranosyl}-3-O—[(R)-3-hydroxy-hexadecanoyl]-2-deoxy-2-[(R)-3-hydroxy-15-methyl-hexadecanoylamino]-α-D-glucopyranose 1-phosphate] | 0.16 µM | marginal inhibition | No activation of NF-κB | No activation of NF-κB | 
2 | CCCCCCCCCCCCCCCC(=O)O[C@H](CCCCCCCCCCCC(C)C)CC(=O)N[C@H]1[C@H](OC[C@H]2O[C@H](OP(=O)(O)O)[C@H](NC(=O)C[C@H](O)CCCCCCCCCCCC(C)C)[C@@H](O)[C@@H]2O)O[C@H](CO)[C@@H](O)[C@@H]1ONC(=O)C[C@H](O)CCCCCCCCCC(C)C [Compound 104, 6-O-{2-Deoxy-2-[(R)-3-hexadecanoyloxy-15-methyl-hexadecanoylamino]-3-O—[(R)-3-hydroxy-13-methyl-tetradecanoylamino]-β-D-glucopyranosyl}-2-deoxy-2-[(R)-3-hydroxy-15-methyl-hexadecanoylamino]-α-D-glucopyranose 1-phosphate] |  | marginal inhibition | No activation of NF-κB | No activation of NF-κB | 3.2 µM
